For one test, the target named is T1, PDK1 kinase (Homo sapiens, UniProt O15530).
T1 sequence (O15530 1-556): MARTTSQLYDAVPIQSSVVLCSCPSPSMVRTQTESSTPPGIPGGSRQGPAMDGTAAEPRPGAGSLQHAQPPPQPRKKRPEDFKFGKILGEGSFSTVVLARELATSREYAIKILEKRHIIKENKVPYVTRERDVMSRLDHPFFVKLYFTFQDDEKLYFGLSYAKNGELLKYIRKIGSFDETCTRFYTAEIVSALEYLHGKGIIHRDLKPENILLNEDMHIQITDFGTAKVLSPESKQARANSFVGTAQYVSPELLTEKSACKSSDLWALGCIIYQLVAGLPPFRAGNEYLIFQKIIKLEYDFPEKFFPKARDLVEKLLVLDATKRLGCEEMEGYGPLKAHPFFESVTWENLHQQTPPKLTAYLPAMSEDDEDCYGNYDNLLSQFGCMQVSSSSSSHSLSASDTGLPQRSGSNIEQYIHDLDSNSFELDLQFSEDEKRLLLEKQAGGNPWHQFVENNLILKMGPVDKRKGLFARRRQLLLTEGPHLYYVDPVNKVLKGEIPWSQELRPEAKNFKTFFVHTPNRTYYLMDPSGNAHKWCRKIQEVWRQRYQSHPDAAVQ
The experiment in a line: PDK1 Kinase Alpha Screen Assay. Type of test: biochemical. To be noted: PDK1 Kinase Alpha Screen Assay; read-out: PDK1 IC50. Put shortly: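 AlphaScreen readout: phospho-peptide captured by phospho-(Ser/Thr) PKA substrate antibody (0.3 mg/ml) on protein A acceptor beads, biotin peptide on streptavidin donor beads (25 μg/ml each), overnight at room temperature. Kinase step used 50 nM PDK1-4 peptide, 10 uM ATP, 3-18 hours.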

For the next test, the system named is PC3MM cells. The test is described as follows: Cell Proliferation Assay (Cell Titer Glo), PC3MM. Type of test: cell-based. To be noted: Cell Proliferation Assay, PC3MM; read-out: CPEC50 PC3MM. As for the experimental part:
IV. Cell Proliferation Assay Protocol:
A2780, PC-3, or PC3MM cells were seeded at 1000 cells/well in 100 μL/well (10.000 cells/mL) growth media in 96-well plates. Cells were allowed to adhere to the bottom of plates for 3-5 hours in a 37° C. 5% CO2 incubator. Compounds were dissolved in DMSO and then transferred to the cell plates. The cells were incubated with the compounds for 3 days in a 37° C. 5% CO2 incubator. The growth medium containing the compounds was then removed from the cells and fresh medium was added, followed by 100 μL of Cell Titer Glo assay reagent (Promega). This mixture was shaken for 1 minute and then incubated without shaking for 10 minutes. Activity determinations for the compounds were made by detection on a Trilux Instrument.

Some results are limits rather than exact numbers.

In the case of `c1cc(N2CCOCC2)ccc1Nc1ncc2cc(-c3cn[nH]c3)c(OC3CCNCC3)cc2n1` [Compound 651, N-(4-morpholinophenyl)-7-(piperidin-4-yloxy)-6-(1H-pyrazol-4-yl)quinazolin-2-amine], the IC50 on PDK1 kinase is less than 5 µM. In addition, the EC50 in the test on PC3MM cells was less than 5 µM.

With `CN1CCC(Oc2cc3nc(Nc4ccc(N5CCOCC5)cc4)ncc3cc2-c2cn[nH]c2)CC1` [Compound 654, 7-(1-methylpiperidin-4-yloxy)-N-(4-morpholinophenyl)-6-(1H-pyrazol-4-yl)quinazolin-2-amine], the IC50 at PDK1 kinase was less than 5 µM. Also, the EC50 with PC3MM cells was less than 5 µM.

With `CN1CCC(Oc2ccc3cnc(Nc4ccc(N5CCOCC5)cc4)nc3c2)CC1` [Compound 655, 7-(1-methylpiperidin-4-yloxy)-N-(4-morpholinophenyl)quinazolin-2-amine], on PDK1 kinase, the IC50 was less than 5 µM. Also, the EC50 with PC3MM cells was less than 5 µM.

As to `COC(=O)Nc1cc(CN2CCOCC2)cc(Nc2ncc3cccc(OC4CCNCC4)c3n2)c1` [Compound 656, methyl 3-(morpholinomethyl)-5-(8-(piperidin-4-yloxy)quinazolin-2-ylamino)phenylcarbamate], on PDK1 kinase, the IC50 is less than 5 µM. Also, in the test on PC3MM cells, the EC50 was less than 5 µM.

Take `C#Cc1cc(OC2CCNCC2)c2nc(Nc3cc(NC(C)=O)cc(-c4cncnc4)c3)ncc2c1` [Compound 657, N-(3-(6-ethynyl-8-(piperidin-4-yloxy)quinazolin-2-ylamino)-5-(pyrimidin-5-yl)phenyl)acetamide]: the IC50 on PDK1 kinase was less than 5 µM. The EC50 in the test on PC3MM cells was less than 5 µM.

In the case of `CC(=O)Nc1cc(NC(C)=O)cc(Nc2ncc3ccc(OC4CCNCC4)cc3n2)c1` [Compound 658, N,N′-(5-(7-(piperidin-4-yloxy)quinazolin-2-ylamino)-1,3-phenylene)diacetamide], the IC50 on PDK1 kinase was less than 5 µM. The EC50 in the test with PC3MM cells is 5 to 10 µM.

`CC(=O)Nc1cc(Nc2ncc3ccc(OC4CCNCC4)cc3n2)cc(-c2cn[nH]c2)c1` [Compound 659, N-(3-(7-(piperidin-4-yloxy)quinazolin-2-ylamino)-5-(1H-pyrazol-4-yl)phenyl)acetamide]: the IC50 at PDK1 kinase is less than 5 µM. For the same molecule, in the test with PC3MM cells, the EC50 is less than 5 µM.

For `CN1CCC(Oc2ccc3cnc(Nc4cc(C(N)=O)cc(-c5cnn(C)c5)c4)nc3c2)CC1` [Compound 660, 3-(1-methyl-1H-pyrazol-4-yl)-5-(7-(1-methylpiperidin-4-yloxy)quinazolin-2-ylamino)benzamide], at PDK1 kinase, the IC50 is less than 5 µM. Further, in the test on PC3MM cells, the EC50 is less than 5 µM.

With `COC(=O)Nc1cc(Nc2ncc3cc(-c4cn[nH]c4)c(OC4CCNCC4)cc3n2)cc(-c2cn[nH]c2)c1` [Compound 661, methyl 3-(7-(piperidin-4-yloxy)-6-(1H-pyrazol-4-yl)quinazolin-2-ylamino)-5-(1H-pyrazol-4-yl)phenylcarbamate], the IC50 at PDK1 kinase is less than 5 µM. For the same molecule, in the test with PC3MM cells, the EC50 was less than 5 µM.

As for `COC(=O)Nc1cc(Nc2ncc3cc(-c4nccs4)c(OC4CCNCC4)cc3n2)cc(-c2cn[nH]c2)c1` [Compound 662, methyl 3-(7-(piperidin-4-yloxy)-6-(thiazol-2-yl)quinazolin-2-ylamino)-5-(1H-pyrazol-4-yl)phenylcarbamate], on PDK1 kinase, the IC50 was less than 5 µM. In addition, in the test on PC3MM cells, the EC50 was less than 5 µM.

Turning to `NC(=O)c1cc(Nc2ncc3cc(-c4cn[nH]c4)cc(OC4CCNCC4)c3n2)cc(N2CCOCC2)c1` [Compound 663, 3-morpholino-5-(8-(piperidin-4-yloxy)-6-(1H-pyrazol-4-yl)quinazolin-2-ylamino)benzamide], at PDK1 kinase, the IC50 was less than 5 µM. Besides, the EC50 with PC3MM cells lay within 5 to 10 µM.

For the molecule `O=C(c1cc(Nc2ncc3cc(-c4cn[nH]c4)cc(OC4CCNCC4)c3n2)cc(N2CCOCC2)c1)N1CCOCC1` [Compound 664, morpholino(3-morpholino-5-(8-(piperidin-4-yloxy)-6-(1H-pyrazol-4-yl)quinazolin-2-ylamino)phenyl)methanone], the concentration for half-maximal inhibition (IC50) on PDK1 kinase is less than 5 µM. In addition, the EC50 with PC3MM cells is 5 to 10 µM.

For `Cn1cc(-c2cc(Nc3ncc4cc(-c5cn[nH]c5)cc(OC5CCNCC5)c4n3)cc(C(N)=O)c2)cn1` [Compound 665, 3-(1-methyl-1H-pyrazol-4-yl)-5-(8-(piperidin-4-yloxy)-6-(1H-pyrazol-4-yl)quinazolin-2-ylamino)benzamide], the concentration for half-maximal inhibition (IC50) at PDK1 kinase was less than 5 µM. In the test with PC3MM cells, the EC50 was in the range of 5 to 10 µM.

As for `C#Cc1cc(OC2CCNCC2)c2nc(Nc3cc(C(N)=O)cc(N4CCOCC4)c3)ncc2c1` [Compound 666, 3-(6-ethynyl-8-(piperidin-4-yloxy)quinazolin-2-ylamino)-5-morpholinobenzamide], the half-maximal inhibitory concentration (IC50) at PDK1 kinase is less than 5 µM. For the same molecule, the EC50 with PC3MM cells is 5 to 10 µM.

Consider `C#Cc1cc(OC2CCNCC2)c2nc(Nc3cc(C(=O)N4CCOCC4)cc(N4CCOCC4)c3)ncc2c1` [Compound 667, (3-(6-ethynyl-8-(piperidin-4-yloxy)quinazolin-2-ylamino)-5-morpholinophenyl)(morpholino) methanone], for which, at PDK1 kinase, the IC50 was less than 5 µM. For the same molecule, the EC50 with PC3MM cells was less than 5 µM.

For the molecule `C#Cc1cc(OC2CCNCC2)c2nc(Nc3cc(C(N)=O)cc(-c4cnn(C)c4)c3)ncc2c1` [Compound 668, 3-(6-ethynyl-8-(piperidin-4-yloxy)quinazolin-2-ylamino)-5-(1-methyl-1H-pyrazol-4-yl)benzamide], the IC50 at PDK1 kinase was less than 5 µM. For the same molecule, the EC50 in the test on PC3MM cells is less than 5 µM.

On to `NC(=O)c1cc(Nc2ncc3cc(Br)cc(OC4CCNCC4)c3n2)cc(N2CCOCC2)c1` [Compound 669, 3-(6-bromo-8-(piperidin-4-yloxy)quinazolin-2-ylamino)-5-morpholinobenzamide], for which, on PDK1 kinase, the half-maximal inhibitory concentration (IC50) was less than 5 µM. Further, the EC50 in the test with PC3MM cells was in the range of 5 to 10 µM.

With `O=C(c1cc(Nc2ncc3cc(Br)cc(OC4CCNCC4)c3n2)cc(N2CCOCC2)c1)N1CCOCC1` [Compound 670, (3-(6-bromo-8-(piperidin-4-yloxy)quinazolin-2-ylamino)-5-morpholinophenyl)(morpholino) methanone], the IC50 at PDK1 kinase is less than 5 µM. The EC50 in the test with PC3MM cells is less than 5 µM.

For the molecule `Cn1cc(-c2cc(Nc3ncc4cc(Br)cc(OC5CCNCC5)c4n3)cc(C(N)=O)c2)cn1` [Compound 671, 3-(6-bromo-8-(piperidin-4-yloxy)quinazolin-2-ylamino)-5-(1-methyl-1H-pyrazol-4-yl)benzamide], at PDK1 kinase, the concentration for half-maximal inhibition (IC50) was less than 5 µM. Further, the EC50 in the test on PC3MM cells is less than 5 µM.

In the case of `NC(=O)c1cc(Nc2ncc3cc(-c4nccs4)cc(OC4CCNCC4)c3n2)cc(N2CCOCC2)c1` [Compound 672, 3-morpholino-5-(8-(piperidin-4-yloxy)-6-(thiazol-2-yl)quinazolin-2-ylamino)benzamide], the IC50 on PDK1 kinase was less than 5 µM. Besides, the EC50 with PC3MM cells was in the range of 5 to 10 µM.

On to `Cn1cc(-c2cc(Nc3ncc4cc(-c5nccs5)cc(OC5CCNCC5)c4n3)cc(C(N)=O)c2)cn1` [Compound 673, 3-(1-methyl-1H-pyrazol-4-yl)-5-(8-(piperidin-4-yloxy)-6-(thiazol-2-yl)quinazolin-2-ylamino)benzamide], for which the half-maximal inhibitory concentration (IC50) on PDK1 kinase is less than 5 µM. The EC50 with PC3MM cells is 5 to 10 µM.

Regarding `NC(=O)c1cc(Nc2ncc3cc(-c4cn[nH]c4)c(OC4CCNCC4)cc3n2)cc(N2CCOCC2)c1` [Compound 674, 3-morpholino-5-(7-(piperidin-4-yloxy)-6-(1H-pyrazol-4-yl)quinazolin-2-ylamino)benzamide], the IC50 at PDK1 kinase was less than 5 µM. In the test on PC3MM cells, the EC50 lay in the range of 5 to 10 µM.

Consider `NC(=O)c1cc(Nc2ncc3cc(-c4nccs4)c(OC4CCNCC4)cc3n2)cc(N2CCOCC2)c1` [Compound 675, 3-morpholino-5-(7-(piperidin-4-yloxy)-6-(thiazol-2-yl)quinazolin-2-ylamino)benzamide], for which the concentration for half-maximal inhibition (IC50) at PDK1 kinase is less than 5 µM. Besides, the EC50 in the test with PC3MM cells was 5 to 10 µM.

In the case of `COC(=O)Nc1cc(Nc2ncc3cc(-c4cn[nH]c4)c(OC4CCN(C)CC4)cc3n2)cc(-c2cn[nH]c2)c1` [Compound 676, methyl 3-(7-(1-methylpiperidin-4-yloxy)-6-(1H-pyrazol-4-yl)quinazolin-2-ylamino)-5-(1H-pyrazol-4-yl)phenylcarbamate], the IC50 at PDK1 kinase was less than 5 µM. The EC50 with PC3MM cells was less than 5 µM.

As to `CN1CCC(Oc2cc3nc(Nc4cc(C(N)=O)cc(N5CCOCC5)c4)ncc3cc2-c2cn[nH]c2)CC1` [Compound 677, 3-(7-(1-methylpiperidin-4-yloxy)-6-(1H-pyrazol-4-yl)quinazolin-2-ylamino)-5-morpholinobenzamide], the IC50 on PDK1 kinase is less than 5 µM. Also, the EC50 in the test on PC3MM cells was in the range of 5 to 10 µM.

One may read the IC50 as the concentration that gives 50% inhibition.

These data come from patent publication US7932262B2 (Novartis AG, priority 2006, dated 2011).
